27 compounds from paper PMC12771125, “Compounds Reducing Human Sperm Motility as Potential Nonhormonal Contraceptives Identified Using a High-Throughput Phenotypic Screening Platform” (ACS Omega, 2025) can be followed below.

The solubility is the concentration that dissolves in the medium under given conditions. A higher solubility goes with much dissolved substance.

≈ marks a conversion by molar mass, not a printed value. Read-outs that look alike come from different tables or passages of the source.

The subject of data set [1] is HepG2 cells. The data set is described as follows: HepG2 cytotoxicity assay (resazurin, 72 h). The conditions noted are these: Homo sapiens, HepG2, 72 h; read-out: HepG2 pEC50 (converted). The format is cell-based, human. The text has this: Our overarching aims for investigating our chemical series and deciding which ones had the potential for further progression were to achieve adequate potency in our motility assay, suitable solubility, and minimal cytotoxicity in HepG2 cells. This third point was often the most challenging, as multiple series had cytotoxicity in HepG2 cells. This observation is perhaps not surprising; many potential targets in sperm cells can also be found in somatic cells. Our cytotoxicity assay is run with an incubation time of 72 h, to give time for gross cytotoxic effects to become apparent.
Compound dilution curves were plated directly using a Labcyte Echo 550 acoustic dispenser (125 nL) in 384-well white clear-bottom plates (Greiner). HepG2 cells (ATCCHepG2 HB-8065) were cultured in minimum essential medium (supplemented with glutamax) with 10% FCS and plated (25 μL) using a WellMate dispenser ([…]) and incubated for 72 h. Doxorubicin was used as a positive control drug. Resazurin was then added to each well at a final concentration of 45 μM, and fluorescence was measured using a PHERAstar LS (BMG Labtech) after 4 h of further incubation (excitation of 528 nm and emission of 590 nm). Raw data were normalized to controls and expressed as % growth.
Figure S2: Concentration-response curves from high throughput HepG2 viability assay. Each compound was tested in duplicate and the curves of each replicate are shown. The reported values in the tables are an average of the 2 pEC50 values obtained. […]
determine 0% effect, positive control used to determine 100% effect).
Hit compounds 1a, 6b and 7a were repurchased from commercial suppliers including enamine and […]
For orientation: Resazurin is reduced to fluorescent resorufin, in cell work by metabolically active cells.

For data set [2], the system named is human sperm. The data set is described as follows: Reduction of sperm motility (RSM) high-throughput phenotypic assay. Type of data set: cell-based. The following applies: reduction of progressive sperm motility relative to control; for EC50: Homo sapiens. How it is done:
Using our previously established phenotypic human sperm motility screening platform, we screened a large subset (62,621 compounds) of one of our in-house diversity libraries (National Phenotypic Screening Centre (NPSC) Diversity Set) (Figure A,B). Briefly, human sperm are collected, isolated from semen, distributed into 384-well plates with test compounds, time-lapse images of sperm movement are recorded using a high-content imager, and progressive motility parameters are calculated using custom data analysis software. Sperm motility is complicated, and the mechanisms underpinning its regulation are not fully understood. Progressive motility, which is a measurement of the movement of forward progression of sperm, is most closely linked to sperm quality, and the percentage of progressively motile sperm compared to control is therefore the parameter utilized during the work described in this paper. […]
We used an HTS screening platform to assess the motility of live human spermatozoa. The platform and its development are described in detail in Gruber et al. , and summarized below in brief. The platform was used to screen compound libraries specifically focusing on reduction in motility. Interesting compounds were examined in further detail as possible starting points for a medicinal chemistry program. The experimental design is illustrated in Figure .
Donors were local to the Dundee area, over the age of 18, and had no known fertility problems and normal sperm concentration, motility and semen characteristics according to WHO 2021 criteria. Special category personal data for donors, such as ethnic origin, was not recorded in accordance with ethical approval and UK GDPR. Samples were obtained by masturbation, after sexual abstinence of 2–5 days, and delivered to the research laboratory within one h of production. Samples were allowed to liquefy at 37 °C for 15–30 min prior to preparation by discontinuous density gradient centrifugation (DGC). […] A minimum of 3 prepared donor samples were routinely pooled to reduce donor-to-donor variability for primary screening assays. Pooled samples were incubated for 3 h at 37 °C under noncapacitating conditions.
In brief, screening batches of cells were transferred to a robotic platform (HighRes Biosolutions Inc.) and maintained during the screen at 37 °C at 5% CO2. Assay-ready 384-well plates containing compounds were prepared prior to the screen and filled with approximately 10,000 spermatozoa (20 μL) per well using a liquid handling system (MultiDrop Combi; ThermoFisher). These plates were incubated for 10 min prior to imaging. The HTS system utilized a Yokogawa CV7000 Cell Voyager high-throughput microscope to record time-lapse images from 2 positions in each well. An adaptation of a tracking algorithm, Trackpy v0.4.1 was utilized to track individual spermatozoa within each well and obtain kinematic parameters. Within the compound-test plates, DMSO was used as the vehicle control.
All steps were performed as previously described. , In summary, data from every compound well were normalized to those from in-plate DMSO controls (wells containing the same amount of DMSO as compound wells). Two positions were recorded in every well, and the average of those positions was used for calculating % of control (median value/DMSO median) × 100. Each plate contained 16 DMSO control wells. Median curvilinear velocity (VCL) was used as the primary readout for the NPSC Diversity Set screened at 6 μM, and percentage progressive motility (PM) was used for all other libraries screened. Hits from the primary screening were chosen based on the % change compared to the control. In these experiments, an RSM of ≥20% compared to negative controls (DMSO) was chosen as a cutoff for potential progression.
In a screening program of this scale, a significant number of compounds are likely to have a negative effect on sperm motility, but a number will show general toxicity. […]

Data set [3] in a line: Aqueous solubility. The format is physicochemical.
Setting [4] is: 10 min, 10 min incubation, reported <X (neg. log of top concentration) if largest reduction <70%, read-out: RSM pEC50 10 mins (converted).
Where [5] appears, read: 3 h incubation, reported <X if largest reduction <70%, read-out: RSM pEC50 3 hrs (converted).
Setting [6] is: 6 h incubation, reported <X if largest reduction <70%, read-out: RSM pEC50 6 hrs (converted).

For `CC(C)c1csc(NC(=O)Nc2ccc(F)cc2F)n1` [Compound 3g], the EC50 in data set [1] is over 100 µM; in data set [2] (setting [4]) it was over 31.6 µM; in data set [2] (setting [5]), over 31.6 µM; in data set [2] (setting [6]) it was over 31.6 µM. This compound registered a solubility in data set [3] of 0.89 µM (≈ 0.265 µg/mL).
Consider `NC(=O)N1CCC2(CCN(Cc3cccc(F)c3)CC2)CC1` [Compound 9a, 9-(3-Fluorobenzyl)-3,9-diazaspiro[5.5]undecane-3-carboxamide], for which the EC50 in data set [1] was over 100 µM; in data set [2] (setting [4]), over 31.6 µM; in data set [2] (setting [5]), 6.31 µM; in data set [2] (setting [6]) it was 3.98 µM.
For `O=C(Nc1nc(-c2ccccn2)cs1)c1ccccc1Cl` [Compound 3c], the EC50 was over 100 µM in data set [1], over 31.6 µM in data set [2] (setting [4]), over 31.6 µM in data set [2] (setting [5]) and over 31.6 µM in data set [2] (setting [6]). In data set [3], the solubility amounted to 100 µM (≈ 31.6 µg/mL).
`CC(C)CNC(=O)Nc1nc(-c2ccccn2)cs1` [Compound 3l]: the EC50 in data set [1] is over 100 µM; in data set [2] (setting [4]), over 31.6 µM; in data set [2] (setting [5]) it was over 31.6 µM; in data set [2] (setting [6]), 7.94 µM. In addition, in data set [3], the concentration in solution (solubility) was 9.3 µM (≈ 2.57 µg/mL).
As to `CS(=O)(=O)Nc1cc(F)ccc1Nc1nc(Nc2ccc(CN3CCNCC3)cc2)ncc1Cl` [Compound 2e], the EC50 is 15.8 µM in data set [1], 3.98 µM in data set [2] (setting [4]), 2 µM in data set [2] (setting [5]) and 1.58 µM in data set [2] (setting [6]). This compound yielded a solubility in data set [3] of 27 µM (≈ 13.7 µg/mL).
As to `Fc1cccc(CN2CCC3(CCNCC3)CC2)c1` [Compound 9d], the EC50 was 63.1 µM in data set [1], over 31.6 µM in data set [2] (setting [4]), over 31.6 µM in data set [2] (setting [5]) and over 31.6 µM in data set [2] (setting [6]).
Turning to `Cc1ccc(CN2CCC3(CC2)CNC(=O)CO3)cc1` [Compound 8g], the EC50 in data set [2] (setting [4]), in data set [2] (setting [5]) and in data set [2] (setting [6]) was over 31.6 µM throughout.
For `N#Cc1ccc(NC(=O)c2ccccc2)cc1Cl` [Compound 1i], the EC50 in data set [1] was 39.8 µM; in data set [2] (setting [4]), over 20 µM.
Consider `O=C1COC2(CCN(Cc3ccsc3)CC2)CN1` [Compound 8d], for which the EC50 in data set [2] (setting [4]) is over 31.6 µM; in data set [2] (setting [5]), 2 µM; in data set [2] (setting [6]) it was 1 µM.
Turning to `CN1CC2(CCN(Cc3ccc(F)cc3)CC2)OCC1=O` [Compound 8h], the EC50 is over 100 µM in data set [1], over 31.6 µM in data set [2] (setting [4]), over 31.6 µM in data set [2] (setting [5]) and over 31.6 µM in data set [2] (setting [6]).
Regarding `O=C1COC2(CCN(Cc3ccco3)CC2)CN1` [Compound 8f], the EC50 in data set [2] (setting [4]) was over 31.6 µM; in data set [2] (setting [5]), over 31.6 µM; in data set [2] (setting [6]), 25.1 µM.
For `Oc1ccc(Nc2ccnc3cc(Cl)ccc23)cc1CN1CCNCC1` [Compound 5c], the EC50 is 12.6 µM in data set [1], over 31.6 µM in data set [2] (setting [4]), over 31.6 µM in data set [2] (setting [5]) and 0.794 µM in data set [2] (setting [6]).
`O=C(Nc1nc(-c2ccccn2)co1)Nc1ccc(F)cc1F` [Compound 3n]: the EC50 in data set [1] is over 100 µM; in data set [2] (setting [4]) it was over 31.6 µM; in data set [2] (setting [5]), over 31.6 µM; in data set [2] (setting [6]), over 31.6 µM.
With `NC(=O)N1CCC2(CCN(Cc3ccc(F)cc3)CC2)CC1` [Compound 9e], the EC50 in data set [2] (setting [4]), in data set [2] (setting [5]) and in data set [2] (setting [6]) was over 31.6 µM each time.
Take `NCCN(C(=O)c1ccc(F)cc1Cl)c1ccc(Cl)cc1` [Compound 1m]: the EC50 in data set [1] is 63.1 µM; in data set [2] (setting [4]), over 31.6 µM; in data set [2] (setting [5]), over 31.6 µM; in data set [2] (setting [6]) it was over 31.6 µM.
On to `Oc1ccc(Nc2ccnc3cc(Cl)ccc23)cc1CN1CCCC1` [Compound 5b], for which the EC50 is 12.6 µM in data set [1], over 31.6 µM in data set [2] (setting [4]), over 31.6 µM in data set [2] (setting [5]) and 0.2 µM in data set [2] (setting [6]).
On to `CC(=O)N1CCC2(CCN(Cc3cccc(F)c3)CC2)CC1` [Compound 9b], for which the EC50 in data set [2] (setting [4]), in data set [2] (setting [5]) and in data set [2] (setting [6]) was over 31.6 µM throughout.
Turning to `Fc1ccc(Nc2ccnc3cc(Cl)ccc23)cc1CN1CCCC1` [Compound 5h], the EC50 in data set [2] (setting [4]), in data set [2] (setting [5]) and in data set [2] (setting [6]) was over 31.6 µM in each case.
Regarding `O=C1COC2(CCN(Cc3cccnc3)CC2)CN1` [Compound 8c], the EC50 in data set [2] (setting [4]) is over 31.6 µM; in data set [2] (setting [5]) it was 6.31 µM; in data set [2] (setting [6]), 1.58 µM.
For the compound `CNC(=O)N1CCC2(CCN(Cc3cccc(F)c3)CC2)CC1` [Compound 9c], the EC50 in data set [2] (setting [4]), in data set [2] (setting [5]) and in data set [2] (setting [6]) was over 31.6 µM throughout.
For the compound `Cc1cc(C)nc(-n2nc(C)cc2Nc2ccccc2)n1` [Compound 6a, 1-(4,6-dimethylpyrimidin-2-yl)-3-methyl-N-phenyl-1H-pyrazol-5-amine], the EC50 was over 31.6 µM in data set [2] (setting [4]), 5.01 µM in data set [2] (setting [5]) and 1.58 µM in data set [2] (setting [6]).
As to `O=C1COC2(CCN(Cc3ccc(F)cc3)CC2)CN1` [Compound 8a, 9-(4-Fluorobenzyl)-1-oxa-4,9-diazaspiro[5.5]undecan-3-one], the EC50 is over 100 µM in data set [1], 12.6 µM in data set [2] (setting [4]), 2 µM in data set [2] (setting [5]) and 0.794 µM in data set [2] (setting [6]).
The corresponding values for `CCN(CC)Cc1cc(Nc2ccnc3cc(Cl)ccc23)ccc1O` [Compound 5a, 4-((7-Chloroquinolin-4-yl)amino)-2-((diethylamino)methyl)phenol, reference compound] are 20 µM, over 31.6 µM, over 31.6 µM and 0.501 µM.
Take `O=C1COC2(CCN(Cc3ccncc3)CC2)CN1` [Compound 8b]: the figures for the EC50 in data set [2] (setting [4]), in data set [2] (setting [5]) and in data set [2] (setting [6]) were 15.8 µM, 1.26 µM and 0.501 µM, respectively.
As for `O=C1COC2(CCN(Cc3ccoc3)CC2)CN1` [Compound 8e], the EC50 is over 31.6 µM in data set [2] (setting [4]), 3.16 µM in data set [2] (setting [5]) and 1.26 µM in data set [2] (setting [6]).
As for `O=C(Nc1nc(C2CC2)cs1)Nc1ccc(F)cc1F` [Compound 3h], the EC50 in data set [1] is 63.1 µM; in data set [2] (setting [4]), over 31.6 µM; in data set [2] (setting [5]), over 31.6 µM; in data set [2] (setting [6]), over 31.6 µM.
Turning to “2-(Phenoxymethyl)-N-(4-(pyridin-2-yl)thiazol-2-yl)benzamide [Compound 3a]”, the “RSM pEC50 10 mins” value in data set [2] (10 min incubation, reported <X (neg. log of top concentration) if largest reduction <70%) is recorded as under 4.5. For the same compound, in data set [2] (3 h incubation, reported <X if largest reduction <70%), the “RSM pEC50 3 hrs” value turned out to be 5.0. For the same compound, in data set [2] (6 h incubation, reported <X if largest reduction <70%), the “RSM pEC50 6 hrs” value amounted to 5.3.
